Measured values as given in patent publication US5493007A, “Platelet aggregation inhibitors having high specificity for GPIIBIIIA” (Genentech, Inc., priority 1994, dated 1996).
pIC50: −log10 of the molar value. Where a SMILES comes first, the peptide text is derived from it. Bridges are numbered along the chain shown (N, C = ends). [ ]: non-standard residue; d: D form. Pen = CC(C)(S)[C@H](N)C(=O)O

Tests used:
[1] = tested on: New Zealand White rabbits; assay: Rabbit cutaneous bleeding time (CBT); conditions: for Rabbit BT Ratio: Example 1, at the % P.A. inhibition given
Experimental: Unanesthetized male New Zealand White rabbits (2.5-3.5 kg) are placed in a standard rabbit restrainer. Ears are shaved and a 20 G Teflon catheter with flowswitch (Viggo) is placed in the medial artery, flushed with saline and locked with 1 ml of heparinized saline (10 m/ml). A 22 G catheter (Abbott) fitted with an injection cap (Medex) is placed in the marginal vein of the same ear. Saline or a GP IIb IIIa receptor antagonist, at a concentration of 1 to 3 mg/ml, is infused via the venous catheter. At time 0, 41% of the dose is given as a bolus over 2 minutes. The remainder is continuously infused over the following 60 minutes. Blood samples (3.2 ml) are collected into syringes without needles via the arterial catheter at -10, -5, 10, 45, and 60 minutes. The first 0.5 ml is discarded and the following 2.7 ml is collected directly into a syringe containing 0.3 ml of 3.8% sodium citrate. The sample is divided into 1.5 ml aliquots and centrifuged at room temperature for 5 seconds at 12,000 G. The resulting platelet rich plasma (PRP) is used to measure ex-vivo platelet aggregation (XPA). At -10 and 60 minutes an additional 1 cml sample is drawn for an automated blood count (Baker instruments). Catheters are flushed and locked after every sample.
CBT is measured at -10, -5, 10, and 45 minutes on the opposite ear, using an automated incision-making instrument (Surgicutt®, ITD). An incision (5mm×1 mm deep) is made on the dorsal surface of the ear at sites not supplied by major blood vessels. Blood is blotted away with absorbent paper placed near the incision site, every 2 to 15 seconds, to a maximum of 15 minutes. Cessation of bleeding is defined as no blood forming at the incision site for 15 seconds. The range of duplicate CBT in 40 normal rabbits was 0.88 to 3.38 minutes.

[2] = tested on: platelet rich plasma (PRP); assay: Rabbit ex-vivo platelet aggregation (XPA), ADP-induced; assay type: in vivo; conditions: Example 1
Experimental: Catheters are flushed and locked after every sample.
[…] of PRP is placed in a disposable glass cuvette with a stir bar. The cuvette is placed in the temperature regulated light path of a light transmittance aggregometer (Chrono-log) and equilibrated to a 37° C. Baseline transmittance is recorded for 30 seconds, after which […] of ADP (1 mM) is added and the change in transmittance recorded. The maximum change from baseline (dT) is noted for each sample. The extent of inhibition of XPA that is produced by an inhibitor is calculated for each animal as follows: Mean dTs are calculated for the pre and post infusion values, and then, percent inhibition is calculated as (1-dt (post)/ddt (pre))×100.

[3] = molecular target: T1, Vitronectin Receptor (αvβ3) (Homo sapiens, UniProt P05106+P06756); assay: Human Vitronectin-Vitronectin Receptor (αvβ3) ELISA Assay; assay type: binding; conditions: purified human αvβ3, vitronectin-coated plates; read-out: ELISA IC50 Vitronectin VnR
T1 construct: Human vitronection receptor (VnR) is purified from human placenta; from tissue; host or cells: human placenta
Description: Human vitronectin (Vn) is isolated from human plasma and purified by affinity chromatography by the method of Yatohgo et. al., (Cell Structure and Function 13:281-292 [1988]).
Human vitronection receptor (VnR) is purified from human placenta by the method of Pytela et al., (Methods Enzymol., 144:475 [1987]). Alternatively the αvβ3 receptor can be purified from some cell lines (e.g., human embryonic kidney 293 cells) transfected with DNA sequences for both the αv and β3 subunits. The subunits are purified by employing octylglucoside extraction followed by Con-A, Heparin-Sepharose, and S-300 Chromatography.
Anti-GP IIb IIIa monoclonal antibodies specific for human GP IIIa are prepared by the method of Newman et al. (Blood, 65:227-232 [1985]), or a similar procedure. This mouse Mab is specific for the β3 subunit of the vitronectin receptor.
Rabbit Fab 2 anti-mouse Fc fragment horse radish peroxidase conjugate (anti-MuFc HRP) is obtained from PelFreeze (cat. no. 715305-1).
Maxisorp microtiter plates are coated with 2 μg/ml human vitronectin dissolved in PBS ([…]) and stored overnight at 4° C. The plates are washed two times with PBS-0.05% Tween-20 (wash buffer) and blocked by incubating with about 150 μl/well of assay buffer (1%, BSA [RIA grade or better] in 50 mM Tris-HCl, 100 mM NaCl, 1 mM MgCl2, CaCl2, MnCl2 pH 7.4) for 60 minutes. Dilutions of standards are prepared and putative inhibitors (Table 3) are dissolved in assay buffer. The blocked plates are emptied and 25 μl/well of inhibitor or standard solution is added to each well. Twenty-five μl of a 30 μg/ml solution of purified αvβ3 in assay buffer is pipetted into the coated plate. The final concentration of receptor in the assay well is about 15 μg/ml. The plate is incubated on a shaker for 60 minutes. Meanwhile, for each microtite plate, 6 ml buffer solution containing 1.5 μg/ml of mouse monoclonal antibody specific for β3 is prepared. To this solution is added μl of the secondary antibody, which is anti-mouse-Fc-HRP antibody conjugate. For example, for one plate, prepare 6 ml of a 1.5 μg/ml mouse Mab solution to which is added 1 μl of anti-mouse-Fc-HRP antibody stock, (this represents a 1:6000 dilution of the antibody - HRP conjugate). This mixture is allowed to incubate during the receptor-inhibitor incubation. The assay plates are washed 4 times with PBS-Tween and 50 μl/well of the antibody mixture is then pipetted into the plate for a 60 minute incubation. The plate is washed 4 times and the color reaction is developed with 50 μl/well of 0.67 mg/ml o-phenyldiamine in PBS containing 0.012% H2 O2. Alternatively, 16 mM citric acid, 50 mM Na2 PO4 at pH 5.0 can be used as a substrate buffer. The reaction is stopped with 50 μl/well 1M H2 SO4. The plates are read at 492-405 nm and the data analyzed by four-parameter fit.

Fibronectin Receptor [4] = molecular target: T2, Fibronectin Receptor (Homo sapiens, UniProt P05556+P08648); assay: Human Fibronectin-Fibronectin Receptor ELISA Assay; assay type: binding; set-up: octylglucoside (OG) extracted human placenta; from tissue; host or cells: human placenta; conditions: human placenta fibronectin receptor, fibronectin-coated plates; read-out: ELISA IC50 Fibronectin FnR
Experimental: Fibronectin receptor is purified according to the procedures of Pytela et al., (Methods Enzymol. 144:475 […]). Briefly, fibronectin receptor is purified employing an Arg-Gly-Asp affinity chromatography from (100 mM) octylglucoside (OG) extracted human placenta. The OG extract is filtered over Sepharose 6B GRGDSPK column. The column is washed three times with three column volumes of Tris-buffered saline (TBS) TBS, 1 mM CaCl2, and 25 mM OG. The receptor is eluted with TBS, 20 mM EDTA, and 25 mM Octyl thioglucoside, and is stored in 1 mM CaCl2, 1 mM MgCl2, at -80° C.
Microtiter plates are coated with 110 μl human fibronectin (at 2 μg/ml) in TBS. Plates are washed three times with TBS containing 0.05% Tween 20. Test inhibitors are then added after washing in 10 microliter aliquots. The fibronectin receptor is added in 2-fold serial dilutions with TBS containing 20 mM octyl glucoside and 2 mM MnCl2. Plates are incubated three hours at room temperature, and washed with 200 μl TBS-Tween 20 buffer. 100 μl of affinity-purffied rabbit anti-human fibronectin receptor antibody is added to the wells and the plates are incubated two hours, washed twice with TBS-Tween and once with distilled water. Affinity-purified goat anti-rabbit IgG conjugated to horseradish peroxidase (100 μl) is added to each well followed by incubation for 60 minutes at room temperature. Plates are again washed twice with TBS-Tween and distilled water. 100 μl of substrate mixture (10 mg o-phenylenediamine in 25 ml 0.1M citrate-phosphate buffer, pH 5.0 6 μ30% H2 O2) is added to the plates and allowed to develop. The development process is stopped by adding 50 μl of 4N H2 SO4 to each well and read at […].

[5] = molecular target: human platelet rich plasma (PRP) (Homo sapiens, UniProt P05106+P08514); assay: In Vitro Human Platelet Aggregation Assay; assay type: cell-based; conditions: human PRP; read-out: Human Platelet Aggregation IC50
Experimental: Platelet aggregation assays are performed in human platelet rich plasma (PRP). Fifty milliliters of whole human blood (9 parts) is drawn on 3.6% sodium citrate (1 part) from a donor who has not taken aspirin or related medications for at least two weeks. The blood is centrifuged at 160×g for 10 minutes at 22° C. and allowed to stand for 5 minutes after which the PRP is decanted. Platelet poor plasma (PPP) is isolated from the remaining blood after centrifugation at 2000×g for 25 minutes. The platelet count of the PRP is diluted to about 300,000 platelets per microliter with PPP.
A 225 μl aliquot of PRP plus 25 μl of either a dilution of the test inhibitor sample or a control (PBS) is incubated for 5 minutes in a Chrono-log Whole Blood Aggregometer at 25° C. An aggregating agent (collagen, 1 μg/ml; U46619, 100 ng/ml; or ADP, 17 μM) is added and the transmission is recorded.

GP IIb IIIa [6] = molecular target: T3, GP IIb IIIa (Homo sapiens, UniProt P05106+P08514); assay: GP IIb IIIa -von Willebrand factor (vWF) ELISA Assay; assay type: binding; set-up: GP IIb IIIa, prepared by the method of Fitzgerald et al; from tissue; conditions: GP IIb IIIa-coated plates, vWF; read-out: ELISA IC50 GPIIb IIIa vWF
Experimental: Microtiter plates are coated with 1.0 μg/ml GP IIb IIIa, prepared by the method of Fitzgerald et al., (Anal. Biochem. 151:169-177 [1985]) and allowed to incubate overnight in coat buffer. The plates are then washed three times in wash buffer (0.05% Tween 20 in PBS) and 150 μl of assay buffer is added and allowed to incubate for 1-2 hours at room temperature on plate shaker. The plates are washed three times and 50 μl of 2x inhibitor in assay buffer (Assay buffer: 0.5% BSA/50 mM Tris, 100 mM NaCl, 1.0 mM CaCl2, 1.0mM MgCl2, 1.0 mM MnCl2; coat buffer is the same but without BSA) is added. Fifty μl of 4.0 μg/ml vWF (prepared as described by Ledford et al., Thrombosis and Haemostasis, 64(4): 569-575 [1990]) in assay buffer is then added and allowed to incubate for one hour at room temperature on plate-shaker. The plates are washed three times and the antibody mixture is added (1:5000 of mouse anti-vWF and 1:5000 of rabbit-anti-mouse-Fc-HRP, both commercially available) in assay buffer and incubated for 1 hour at room temperature on plate-shaker. Plates are again washed three times and 100 μl of substrate solution (10 mg OPD, 6.5 μl H2 O2, 15 ml phosphate citrate buffer) is added and incubated at room temperature. The color change of OPD/H2 O2 reagent is read at 492 nm with a 405 nm reference wavelength on the filter photometer.

[7] = tested on: New Zealand White rabbits; assay: Rabbit peripheral blood flow and CBT, laser Doppler series; assay type: in vivo; conditions: 1 mg intravenously over 2 minutes at 60 minutes, within 5 minutes, laser doppler probe
Experimental: In an alternative series of experiments, (Table 2 ) PBF was measured quantitatively with a laser Doppler flow probe (Perimed). The probe was positioned securely over the vascular bed of one ear and flow monitored continuously. Each inhibitor was infused and CBT measured in the opposing ear. No arterial catheter was placed for blood sampling, consequently XPA was not measured in these animals.
As a positive control, epinephrine was infused intravenously (1 mg over 2 minutes.) at 60 minutes. The resulting vasoconstriction reduced flow to near 0 flow units within 5 minutes.

vitronectin receptor = vitronectin receptor (Homo sapiens, UniProt P05106+P06756); conditions: cited from earlier work
Fibronectin Receptor [8] = molecular target: T2, Fibronectin Receptor; conditions: Pierschbacher et al. 1987; cited from earlier work
GP IIb IIIa [9] = molecular target: T3, GP IIb IIIa; conditions: Kirchofer et al. 1990; versus αvβ3 and α5β1; cited from earlier work

T2 sequence (P08648 42-894 limits assumed): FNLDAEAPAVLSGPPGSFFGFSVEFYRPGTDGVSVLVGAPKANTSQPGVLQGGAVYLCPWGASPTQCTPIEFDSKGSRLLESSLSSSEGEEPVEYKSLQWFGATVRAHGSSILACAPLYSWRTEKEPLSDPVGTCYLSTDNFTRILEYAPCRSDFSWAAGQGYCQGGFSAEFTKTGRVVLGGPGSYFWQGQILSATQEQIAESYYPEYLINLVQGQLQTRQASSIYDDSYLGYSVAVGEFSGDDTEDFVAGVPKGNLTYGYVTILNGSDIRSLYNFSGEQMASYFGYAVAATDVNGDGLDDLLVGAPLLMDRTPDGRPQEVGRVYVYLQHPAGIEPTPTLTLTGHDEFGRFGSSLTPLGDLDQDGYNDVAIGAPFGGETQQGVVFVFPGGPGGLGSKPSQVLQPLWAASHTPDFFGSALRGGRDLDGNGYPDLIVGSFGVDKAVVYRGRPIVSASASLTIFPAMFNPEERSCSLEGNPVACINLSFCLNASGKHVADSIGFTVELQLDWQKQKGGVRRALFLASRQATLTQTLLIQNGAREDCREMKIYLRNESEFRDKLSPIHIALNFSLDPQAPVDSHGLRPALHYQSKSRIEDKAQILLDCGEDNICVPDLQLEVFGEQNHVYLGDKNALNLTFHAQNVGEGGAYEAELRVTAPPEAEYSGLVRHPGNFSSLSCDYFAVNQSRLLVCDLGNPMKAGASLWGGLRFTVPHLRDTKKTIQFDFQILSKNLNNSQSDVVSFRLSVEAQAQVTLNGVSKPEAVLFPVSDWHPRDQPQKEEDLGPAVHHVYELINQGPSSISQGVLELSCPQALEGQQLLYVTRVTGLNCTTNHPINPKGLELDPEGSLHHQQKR
T2 sequence (P08648 895-1049 partner limits assumed): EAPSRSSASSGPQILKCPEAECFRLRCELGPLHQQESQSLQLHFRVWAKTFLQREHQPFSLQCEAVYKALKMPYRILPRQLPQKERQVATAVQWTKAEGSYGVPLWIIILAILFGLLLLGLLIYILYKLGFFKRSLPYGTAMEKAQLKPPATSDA
T2 sequence (P05556 21-798): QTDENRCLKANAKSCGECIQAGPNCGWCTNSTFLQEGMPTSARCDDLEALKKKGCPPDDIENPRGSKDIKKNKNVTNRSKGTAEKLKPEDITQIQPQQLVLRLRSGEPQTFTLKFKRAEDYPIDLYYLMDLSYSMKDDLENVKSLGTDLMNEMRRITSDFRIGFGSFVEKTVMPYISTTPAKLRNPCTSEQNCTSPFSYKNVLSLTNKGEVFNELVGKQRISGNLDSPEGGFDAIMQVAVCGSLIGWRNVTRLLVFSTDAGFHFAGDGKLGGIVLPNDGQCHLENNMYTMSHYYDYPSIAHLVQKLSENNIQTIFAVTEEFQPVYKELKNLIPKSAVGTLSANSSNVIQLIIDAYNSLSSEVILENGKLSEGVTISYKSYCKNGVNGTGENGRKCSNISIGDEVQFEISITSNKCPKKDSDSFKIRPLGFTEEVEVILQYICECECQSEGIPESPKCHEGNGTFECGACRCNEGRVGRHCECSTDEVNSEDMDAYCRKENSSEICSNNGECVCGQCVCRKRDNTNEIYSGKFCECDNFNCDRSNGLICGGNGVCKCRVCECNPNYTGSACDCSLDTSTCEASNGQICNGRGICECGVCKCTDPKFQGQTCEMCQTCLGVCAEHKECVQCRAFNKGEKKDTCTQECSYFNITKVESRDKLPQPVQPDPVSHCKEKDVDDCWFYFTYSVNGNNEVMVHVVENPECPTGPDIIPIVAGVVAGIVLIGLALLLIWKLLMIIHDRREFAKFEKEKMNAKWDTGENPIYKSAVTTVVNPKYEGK
vitronectin receptor, sequence (P06756 31-889 limits assumed): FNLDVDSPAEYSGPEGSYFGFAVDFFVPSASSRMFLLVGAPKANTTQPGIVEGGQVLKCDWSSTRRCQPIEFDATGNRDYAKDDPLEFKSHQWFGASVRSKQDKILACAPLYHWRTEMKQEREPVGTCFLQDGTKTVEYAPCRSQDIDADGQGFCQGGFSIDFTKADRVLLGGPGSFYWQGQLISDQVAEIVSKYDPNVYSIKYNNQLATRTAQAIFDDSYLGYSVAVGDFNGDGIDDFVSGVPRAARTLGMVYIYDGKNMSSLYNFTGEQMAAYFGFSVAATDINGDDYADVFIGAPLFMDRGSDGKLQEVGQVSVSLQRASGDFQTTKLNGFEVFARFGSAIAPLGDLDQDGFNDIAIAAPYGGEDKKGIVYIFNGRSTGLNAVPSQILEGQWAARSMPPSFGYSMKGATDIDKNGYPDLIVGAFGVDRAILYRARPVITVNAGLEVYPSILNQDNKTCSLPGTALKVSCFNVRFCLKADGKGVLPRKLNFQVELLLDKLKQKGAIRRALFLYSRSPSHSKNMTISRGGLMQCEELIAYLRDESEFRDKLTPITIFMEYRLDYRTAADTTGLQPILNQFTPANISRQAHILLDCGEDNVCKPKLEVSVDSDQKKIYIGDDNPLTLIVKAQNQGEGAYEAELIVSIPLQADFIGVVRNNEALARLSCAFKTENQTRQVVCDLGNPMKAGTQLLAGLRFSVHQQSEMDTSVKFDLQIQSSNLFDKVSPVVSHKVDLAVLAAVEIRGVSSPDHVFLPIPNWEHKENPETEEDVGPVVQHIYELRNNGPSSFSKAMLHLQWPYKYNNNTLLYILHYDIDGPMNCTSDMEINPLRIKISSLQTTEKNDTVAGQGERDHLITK
vitronectin receptor, sequence (P06756 891-1048 partner limits assumed): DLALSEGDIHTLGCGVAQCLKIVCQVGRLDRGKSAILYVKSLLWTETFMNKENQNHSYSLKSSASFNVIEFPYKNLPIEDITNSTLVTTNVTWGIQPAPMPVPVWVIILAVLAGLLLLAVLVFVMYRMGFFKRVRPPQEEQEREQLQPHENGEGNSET
vitronectin receptor, sequence (P05106 27-788): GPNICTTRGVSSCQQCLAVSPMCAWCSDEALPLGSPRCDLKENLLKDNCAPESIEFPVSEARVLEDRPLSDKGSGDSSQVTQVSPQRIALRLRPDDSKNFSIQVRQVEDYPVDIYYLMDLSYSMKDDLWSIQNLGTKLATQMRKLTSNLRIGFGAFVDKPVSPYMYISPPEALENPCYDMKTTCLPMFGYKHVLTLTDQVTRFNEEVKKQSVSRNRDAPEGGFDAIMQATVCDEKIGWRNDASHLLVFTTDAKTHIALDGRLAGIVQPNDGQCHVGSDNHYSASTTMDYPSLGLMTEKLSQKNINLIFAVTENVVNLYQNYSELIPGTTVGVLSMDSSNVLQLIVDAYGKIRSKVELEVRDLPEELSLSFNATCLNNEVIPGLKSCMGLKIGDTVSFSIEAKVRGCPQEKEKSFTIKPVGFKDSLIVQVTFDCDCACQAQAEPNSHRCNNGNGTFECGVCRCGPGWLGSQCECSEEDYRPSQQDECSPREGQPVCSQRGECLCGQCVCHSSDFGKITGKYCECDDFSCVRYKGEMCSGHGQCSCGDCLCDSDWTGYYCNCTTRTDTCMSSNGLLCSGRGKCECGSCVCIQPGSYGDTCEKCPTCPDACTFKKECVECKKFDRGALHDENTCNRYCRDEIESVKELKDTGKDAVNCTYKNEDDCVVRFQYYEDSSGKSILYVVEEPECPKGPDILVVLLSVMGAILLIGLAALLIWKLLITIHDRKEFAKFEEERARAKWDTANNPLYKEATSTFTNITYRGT
T1 sequence (P06756 31-889 limits assumed): as the sequence (P06756 31-889 limits assumed) above
T1 sequence (P06756 891-1048 partner limits assumed): as the sequence (P06756 891-1048 partner limits assumed) above
T1 sequence (P05106 27-788): as the sequence (P05106 27-788) above

N=C(N)NCCC[C@H](NC(=O)[C@@H]1C[S+]([O-])CC(=O)N[C@H](Cc2ccc(O)cc2)C(=O)N[C@@H](CCCNC(=N)N)C(=O)NCC(=O)N[C@@H](CC(=O)O)C(=O)N1)C(N)=O (single isomer, unassigned) [7/32]
Rabbit BT Ratio ([1]; rabbit): 1.17 | Rabbit % P.A. Inhibition (ex vivo) [2]: 99%

N=C(N)NCCC[C@@H]1NC(=O)[C@@H](Cc2ccc(O)cc2)NC(=O)C[S+]([O-])C[C@@H](C(=O)N[C@H](CCCNC(=N)N)C(N)=O)NC(=O)[C@H](CC(=O)O)NC(=O)CNC1=O (single isomer, unassigned) [7/34]
Rabbit BT Ratio ([1]; rabbit): 0.94 | Rabbit % P.A. Inhibition (ex vivo) [2]: 64%

N=C(N)NCCC[C@@H]1NC(=O)[C@@H](Cc2ccc(O)c(Br)c2)NC(=O)C[S+]([O-])C[C@@H](C(=O)N[C@@H](CCCCN)C(N)=O)NC(=O)[C@H](CC(=O)O)NC(=O)CNC1=O (single isomer, unassigned) [7/36]
Rabbit BT Ratio ([1]; rabbit): 0.77 | Rabbit % P.A. Inhibition (ex vivo) [2]: 91%

NCCCC[C@@H]1NC(=O)[C@@H](Cc2ccc(O)cc2)NC(=O)C(c2ccccc2)SC[C@@H](C(=O)O)NC(=O)[C@H](CC(=O)O)NC(=O)CNC1=O (single isomer, unassigned) [7/45, cyclo-S-phenylacetyl-dTyr--Lys--Gly--Asp--Cys--OH]
pIC50 [3]: < 4.70 | Rabbit BT Ratio ([1]; rabbit): 4.47 | pIC50 (Fibronectin Receptor [4]): < 5.00 | pIC50 [5]: 6.66 | pIC50 (GP IIb IIIa [6]): 9.00

CC1(C)SCC(=O)N[C@H](Cc2ccc(O)cc2)C(=O)N[C@@H](CCCCN)C(=O)NCC(=O)N[C@@H](CC(=O)O)C(=O)N[C@@H]1C(=O)O [7/47] ({CH2CO}-[dY]KGD[Pen]-OH; thioether N-5)
cutaneous bleeding time, result in words [1]: prolongation of bleeding time in vivo in both the rabbit and dog model | Rabbit BT Ratio ([1]; rabbit): 8.57 | increase of cutaneous bleeding time compared to the undosed animal ([1]; rabbit, dose sufficient to achieve about 97% inhibition of platelet aggregation): 8.6 times | Rabbit % P.A. Inhibition (ex vivo) [2]: 96%

CNC[C@H](O)c1ccc(O)c(O)c1 [epinephrine]
peripheral blood flow after positive control [7]: ~0 flow units

Gly-Pen-Gly-Arg-Gly-Asp-Ser-Pro-Cys-Ala
effectiveness at inhibiting the vitronectin-vitronectin receptor interaction, cyclized versus uncyclized peptide (vitronectin receptor; Pierschbacher et al. 1987): 10 times | inhibition of the fibronectin-fibronectin receptor interaction, in words (Fibronectin Receptor [8]): ineffective

cyclic-1,7-VRGDSPDG
integrin selectivity, in words (vitronectin receptor; Kirchofer et al. 1990): preferentially inhibited αvβ3 (vitronectin receptor) binding to vitronectin

cyclic-2,10-GPenGHRGDLRCA
integrin selectivity, in words (GP IIb IIIa [9]): preferentially inhibits the binding of GP IIb IIIa to fibrinogen
